Measured values reported in patent publication US8969542B2, “HPV polyepitope constructs and uses thereof” (priority 2007, dated 2015).
Where no end group is shown, it is not given here.

How the values were obtained:
Experiment in all cases: HLA class I competition binding assay using soluble HLA
[1] = target: HLA A0203 (Homo sapiens, UniProt P04439, A173T/D140Y/D185E/D98H/E277Q/G131W/G231S/I119V/I121R/I166T/I218V/L180W/L300P/L318F/N151K/N90K/P208A/P217A/Q86G/Q94H/R138H/R169H/T345S)
[2] = target: HLA A0202 (Homo sapiens, UniProt P04439, D140Y/D185E/D98H/E176V/E277Q/G131W/G231S/I119L/I121R/I166T/I218V/L180W/L300P/L318F/N151K/N90K/P208A/P217A/Q67R/Q86G/Q94H/R138H/R169H/T345S)
[3] = target: HLA A6802 (Homo sapiens, UniProt P04439, A269V/D140Y/D185E/E176V/E277Q/E87N/F33Y/G231S/I121R/I166T/I218V/L180W/L300P/L318F/N151K/P208A/P217A/Q86R/R138H/R169H/S129P/T345S/V36M)
[4] = target: HLA A0206 (Homo sapiens, UniProt P04439, D140Y/D185E/D98H/E176V/E277Q/F33Y/G131W/G231S/I119V/I121R/I166T/I218V/L300P/L318F/N151K/N90K/P208A/P217A/Q86G/Q94H/R138H/R169H/T345S)
[5] = target: HLA A3101 (Homo sapiens, UniProt P04439, A270S/D185E/E176V/E277Q/F33T/G231S/G80R/H175R/I121M/I218V/I322F/K168Q/L300P/L318F/M331R/P217A/Q94H/R138Q/T323A/T345S/T97I/V358M)
[6] = target: HLA A3301 (Homo sapiens, UniProt P04439, A270S/D185E/E176V/E277Q/E87N/F33T/G231S/H175R/I121M/I218V/I322F/K168Q/K210R/L300P/L318F/M331R/P217A/Q86R/Q94H/R138Q/T323A/T345S/T97I/V358M/Y195H)
[7] = target: T1, HLA A0301 (Homo sapiens, UniProt P04439)
T1 construct: endogenous in cells

[8] = target: HLA A6801 (Homo sapiens, UniProt P04439, A269V/D185E/E176V/E277Q/E87N/F33Y/G231S/I121M/I166T/I218V/L180W/L300P/L318F/N151K/P208A/P217A/Q86R/R169H/T345S)
[9] = target: HLA A2601 (Homo sapiens, UniProt P04439, A114D/A173T/A270S/D101N/D185E/E277Q/E87N/F33Y/G231S/I121R/I218V/K168Q/L180W/L300P/L318F/P208A/P217A/Q86R/Q94H/R138Q/S129P/T187R/T323A/T345S/V100A/V358M)
[10] = target: HLA A3002 (Homo sapiens, UniProt P04439, D101N/D140H/D185E/E176R/F33S/G80R/H175R/K168Q/Q94H/R138E/R41S/V100E)
[11] = target: HLA A0201 (Homo sapiens, UniProt P04439, D140Y/D185E/D98H/E176V/E277Q/G131W/G231S/I119V/I121R/I166T/I218V/L300P/L318F/N151K/N90K/P208A/P217A/Q86G/Q94H/R138H/R169H/T345S)
[12] = target: HLA A1101 (Homo sapiens, UniProt P04439, A114D/D185E/E176A/F33Y/L180Q/S129P/T187R)

Sequence	IC50 [1]	IC50 [2]	IC50 [3]	IC50 [4]	IC50 [6]	IC50 [8]	IC50 [12]	also measured
KLTNKGICDL [compound 54]	585 nM	440 nM	> 20000 nM	484 nM				
KLTNTGLYNV [compound 31]		2.9 nM	688 nM	83 nM				
KVSEFRWYRY [compound 59]					338 nM	192 nM		IC50 [5]: 3 nM; IC50 [7]: 213 nM
LQDKILDHY [compound 67]								IC50 [9]: 5000 nM; IC50 [10]: 836 nM
LSQMVQWAY [compound 1]								IC50 [9]: 6450 nM; IC50 [10]: 0.93 nM
LTDVSIACVY [compound 69]								IC50 [9]: 8200 nM
QTEPDTSNY [compound 48]								IC50 [9]: > 20000 nM
SLVFLLCFSV [compound 74]			20 nM					IC50 [11]: 8.5 nM
STAAALYWYR [compound 56]					47 nM	12 nM	10 nM	IC50 [5]: 5.6 nM; IC50 [7]: 198 nM
STWHWTGCNK [compound 80]					428 nM		2.8 nM	
SVICFVNSK [compound 16]					51 nM	5.4 nM	2.2 nM	
SVYGETLEK [compound 83]						7.2 nM	9.5 nM	IC50 [5]: 6510 nM
SVYGTTLER [compound 60]					853 nM	4 nM	7 nM	IC50 [5]: 75 nM; IC50 [7]: 22 nM
TLHDIILECV [compound 9]	1.9 nM	0.54 nM	2950 nM	92 nM				IC50 [11]: 3.6 nM
TLQEIVLHV [compound 77]	5.1 nM	30 nM	2460 nM					
TLYAHIQCL [compound 72]								IC50 [11]: 34 nM
TVYVFCFLL [compound 29]	769 nM	587 nM		26 nM				IC50 [11]: 175 nM
VVLLLVRYK [compound 12]					6.1 nM	76 nM	4.1 nM	IC50 [5]: 0.1 nM; IC50 [7]: 6.3 nM
YQFAFKDLCV [compound 76]	4.2 nM	1.3 nM	3700 nM	10 nM				
YVVWDSIYYI [compound 73]	248 nM		30 nM	20 nM				
